Among the test systems are MDA-MB-231 breast; SK-OV-3 ovarian; PC-3 prostate; SF-295 CNS; TK-10 renal; NCI/ADR-RES ovarian; UACC-257 melanoma; OVCAR-3 ovarian; SK-MEL-2 melanoma; SN12C renal.
What all share (experiment): NCI-60 cell line screen, 48 h

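1) Cells in 96-well plates. 2) Compound, 48 h, 5 concentrations. 3) Linear interpolation between surrounding doses. 4) Unreached endpoint = highest concentration. Here, GI50 denotes the concentration required for 50% inhibition of growth. TGI: total growth inhibition.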

`COc1cc(-c2nn(-c3ccc(NC(=O)c4ccc(Cl)c(C(F)(F)F)c4)cc3)cc2-c2ccncc2)ccc1Cl`: the GI50 is 1.6 µM in the test with MDA-MB-231 breast; more than 27.1 µM with SK-OV-3 ovarian; 3.04 µM in the test on PC-3 prostate; 0.255 µM with SF-295 CNS; 4.56 µM with TK-10 renal; 3.63 µM with NCI/ADR-RES ovarian. Besides, the GI50 was 6.91 µM in the test on UACC-257 melanoma, 2.98 µM in the test with OVCAR-3 ovarian, 3.12 µM in the test with SK-MEL-2 melanoma and 4.64 µM in the test with SN12C renal. Further, the TGI is 6.09 µM in the test with MDA-MB-231 breast; more than 100 µM in the test on SK-OV-3 ovarian; more than 100 µM in the test on PC-3 prostate; 0.948 µM in the test on SF-295 CNS; more than 100 µM with TK-10 renal; more than 100 µM in the test with NCI/ADR-RES ovarian. For the same molecule, the TGI is more than 100 µM in the test with UACC-257 melanoma, more than 30.9 µM in the test with OVCAR-3 ovarian, more than 28.5 µM in the test with SK-MEL-2 melanoma and more than 100 µM in the test on SN12C renal.

For the molecule `CCCCCN(CCCCC)CC(O)c1cc(C)c2ccc3cc(C(C)C)ccc3c2c1` (stereo not drawn), the GI50 was 1.79 µM in the test on MDA-MB-231 breast; 1.72 µM with SK-OV-3 ovarian; 1.59 µM in the test on PC-3 prostate; 1.87 µM in the test with SF-295 CNS; 1.89 µM in the test on TK-10 renal; 2.16 µM with NCI/ADR-RES ovarian. Also, the GI50 in the test with UACC-257 melanoma is 1.99 µM; with OVCAR-3 ovarian, 1.92 µM; in the test on SK-MEL-2 melanoma, 2.2 µM; in the test with SN12C renal it was 1.75 µM. The TGI in the test on MDA-MB-231 breast worked out at 3.77 µM; in the test with SK-OV-3 ovarian, 3.46 µM; in the test with PC-3 prostate, 3.08 µM; with SF-295 CNS it was 3.46 µM; in the test on TK-10 renal, 3.51 µM; with NCI/ADR-RES ovarian it was 4.61 µM. Also, the TGI in the test on UACC-257 melanoma is 3.97 µM; with OVCAR-3 ovarian, 3.41 µM; with SK-MEL-2 melanoma, 4.83 µM; with SN12C renal, 3.59 µM.

Consider `COc1ccc2c(C3=C(c4cn(C)c5ccccc45)C(=O)NC3=O)cn(C)c2c1`, for which the GI50 was 0.542 µM with MDA-MB-231 breast; 0.138 µM in the test with SK-OV-3 ovarian; 0.0936 µM in the test on PC-3 prostate; 0.0649 µM in the test with SF-295 CNS; more than 25 µM with TK-10 renal; 0.0928 µM in the test on NCI/ADR-RES ovarian. Further, the GI50 with UACC-257 melanoma was 1.61 µM; in the test on OVCAR-3 ovarian it was 0.0841 µM; with SK-MEL-2 melanoma, 0.597 µM; with SN12C renal, 0.221 µM. Further, the TGI in the test with MDA-MB-231 breast, with SK-OV-3 ovarian, in the test on PC-3 prostate, in the test with TK-10 renal, with NCI/ADR-RES ovarian and with UACC-257 melanoma was more than 25 µM each time. Also, the TGI in the test on OVCAR-3 ovarian is 1.03 µM; in the test on SK-MEL-2 melanoma, more than 9.97 µM; in the test on SN12C renal, more than 25 µM.

As to `CC(C)CCC[C@@H](C)[C@H]1CC[C@H]2[C@@H]3CC=C4C[C@@H](C(C(=O)O)C(=O)O)CC[C@]4(C)[C@H]3CC[C@]12C`, the GI50 with MDA-MB-231 breast is 0.214 µM; in the test on SK-OV-3 ovarian, 0.298 µM; with PC-3 prostate, 0.177 µM; in the test with SF-295 CNS, 0.0643 µM; in the test on TK-10 renal, 0.165 µM; with NCI/ADR-RES ovarian, 0.22 µM. Besides, the GI50 with UACC-257 melanoma was 0.133 µM; with OVCAR-3 ovarian, 0.121 µM; in the test with SK-MEL-2 melanoma, 0.224 µM; in the test on SN12C renal, 0.137 µM. The TGI in the test on MDA-MB-231 breast was 0.838 µM; in the test with SK-OV-3 ovarian, 3.15 µM; in the test with PC-3 prostate, 2.19 µM; with SF-295 CNS, 0.153 µM; in the test on TK-10 renal, 0.632 µM; with NCI/ADR-RES ovarian, 6 µM. Further, the TGI turned out to be 0.639 µM with UACC-257 melanoma, 0.298 µM in the test with OVCAR-3 ovarian, 0.613 µM in the test on SK-MEL-2 melanoma and 0.457 µM in the test with SN12C renal.

For the molecule `CCCCCN(CCCCC)CCCNc1c2c(nc3ccc(Cl)cc13)CCCC2`, the GI50 is 2.76 µM in the test with MDA-MB-231 breast; 4.08 µM in the test with SK-OV-3 ovarian; 2.46 µM in the test with PC-3 prostate; 1.18 µM with SF-295 CNS; 2.4 µM in the test on TK-10 renal; 2.15 µM with NCI/ADR-RES ovarian. In addition, the GI50 was 2.19 µM in the test with UACC-257 melanoma, 1.96 µM in the test on OVCAR-3 ovarian, 2.05 µM with SK-MEL-2 melanoma and 2.92 µM in the test with SN12C renal. The TGI stood at 13.1 µM in the test on MDA-MB-231 breast; 13.8 µM with SK-OV-3 ovarian; 8.9 µM with PC-3 prostate; 3.05 µM in the test with SF-295 CNS; 7.24 µM in the test with TK-10 renal; 6.11 µM in the test with NCI/ADR-RES ovarian. For the same molecule, the TGI was determined as 4.52 µM in the test with UACC-257 melanoma, 4.36 µM with OVCAR-3 ovarian, 3.99 µM in the test with SK-MEL-2 melanoma and 12.8 µM with SN12C renal.

For `O=C1C(Cl)=C(Nc2cccc(Cl)c2)C(=O)N1Cc1ccc(Cl)cc1Cl`, the GI50 in the test on MDA-MB-231 breast was 0.176 µM; with SK-OV-3 ovarian it was 3.57 µM; in the test with PC-3 prostate, 2.94 µM; in the test on SF-295 CNS, 4.22 µM; with TK-10 renal it was 11.5 µM; with NCI/ADR-RES ovarian it was 0.904 µM. Besides, the GI50 was 5.94 µM with UACC-257 melanoma, 11.1 µM with OVCAR-3 ovarian, 1.6 µM in the test with SK-MEL-2 melanoma and 0.252 µM with SN12C renal. In addition, the TGI was 12.9 µM in the test with MDA-MB-231 breast; 20.6 µM in the test on SK-OV-3 ovarian; more than 50.3 µM in the test on PC-3 prostate; 33.4 µM with SF-295 CNS; 31.7 µM in the test on TK-10 renal; 25 µM with NCI/ADR-RES ovarian. Moreover, the figures for the TGI in the test with UACC-257 melanoma, with OVCAR-3 ovarian and in the test with SN12C renal were 24.8 µM, 24.8 µM and 12.8 µM, respectively.

`Cc1ccc(NC2=C(Cl)C(=O)N(Cc3ccccc3)C2=O)cc1O`: the GI50 in the test with MDA-MB-231 breast is 21 µM; with SK-OV-3 ovarian, 55.2 µM; with PC-3 prostate, 32.5 µM; in the test on SF-295 CNS it was 22 µM; with TK-10 renal it was 31.3 µM; with NCI/ADR-RES ovarian, 30.8 µM. For the same molecule, the GI50 with UACC-257 melanoma is 39.5 µM; with OVCAR-3 ovarian it was 20.6 µM; in the test with SK-MEL-2 melanoma it was 7.83 µM; with SN12C renal, 25.6 µM. The TGI is 61.5 µM in the test on MDA-MB-231 breast; more than 100 µM in the test on SK-OV-3 ovarian; more than 100 µM with PC-3 prostate; 81.8 µM with SF-295 CNS; more than 100 µM in the test on TK-10 renal; more than 100 µM in the test on NCI/ADR-RES ovarian. Besides, the TGI is more than 100 µM in the test with UACC-257 melanoma, 70 µM in the test with OVCAR-3 ovarian, 54.8 µM with SK-MEL-2 melanoma and 93.8 µM with SN12C renal.

The record behind these values is PubChem BioAssay (NCI).
